Assay results from EPA's ToxValDB 9.5 (doi:10.2903/j.efsa.2010.1716).
In brackets after ≈: the same amount, converted by molar mass.

What was measured:
Aphidius rhopalosiphi = assay: LR50; higher = less toxic; settings: not reported; mortality
Danio rerio = settings: acute; duration: 96 hours; mortality
Apis mellifera = settings: acute; duration: 48 hours; oral; unspecified; mortality
Bibionidae = settings: chronic/long-term; duration: 28 days; seedling emergence
Daphnia magna = settings: chronic/long-term; duration: 21 days; reproduction
Tagia sp. = settings: acute; duration: 14 days; mortality
Oryctolagus sp. = settings: reproduction developmental; body weight

c1ccc(CNc2ncnc3nc[nH]c23)cc1 [N-Benzyladenine]
LR50 (Aphidius rhopalosiphi): 36.2 g/ha | LC50 (Colinus virginianus; acute, oral, diet, mortality): > 2880 mg/kg-day | LD50 (Colinus virginianus; acute, oral, mortality): 1600 mg/kg-day | NOEC (Colinus virginianus; reproduction developmental): 41.3 mg/kg-day | LD50 (Rattus norvegicus; acute, oral, mortality): 1580 mg/kg-day | NOEL (Rattus norvegicus; reproduction developmental, body weight): 30 mg/kg-day | LC50 (Danio rerio): 32 µg/mL (≈ 142 µM) | LD50 (Apis mellifera): > 58.7 µg/piece | NOEC (Bibionidae): 4.52 mg/L | NOEC (Daphnia magna): 4 mg/L | LC50 (Tagia sp.): > 1000 mg/kg | NOAEL (Oryctolagus sp.): < 10 mg/kg-day
